# Assay results as given in patent publication US20250098679A1, “HERBICIDAL PYRIDONE DERIVATIVES” (SYNGENTA CROP PROTECTION AG, priority 2021, published 2025).
# Columns and labels:
# Assay type in all cases: in vivo
# Settings in all cases: evaluated after 13 days
# Zea mays (ZEAMX) [1] = assay: Pre-emergence Test, Zea mays (ZEAMX)
# [2] = test system: Amaranthus palmeri (AMAPA); assay: Post-emergence Test, Amaranthus palmeri (AMAPA); parameters: key: 5=81-100%, 4=61-80%, 3=41-60%, 2=21-40%, 1=0-20% damage
# Procedure, shortened: (§1)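 Application was a spray of acetone/water (50:50) with 0.5% Tween 20 onto pots of test species sown in standard soil. Unless otherwise stated, the rate was 1000 g/ha. After 13 days under glasshouse conditions (24/16 °C, 65% humidity), injury was scored from 1 (0-20%) to 5 (81-100%).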
# [3] = test system: Amaranthus palmeri (AMAPA); assay: Pre-emergence Test, Amaranthus palmeri (AMAPA)
# [4] = test system: Echinochloa crus-galli (ECHCG); assay: Pre-emergence Test, Echinochloa crus-galli (ECHCG)
# [5] = test system: Echinochloa crus-galli (ECHCG); assay: Post-emergence Test, Echinochloa crus-galli (ECHCG); parameters: key to percentage damage caused to the plant, ECHCG (five-point scale): 5=81-100%, 4=61-80%, 3=41-60%, 2=21-40%, 1=0-20% damage
# Procedure, shortened: as §1
# [6] = test system: Ipomoea hederacea (IPOHE); assay: Pre-emergence Test, Ipomoea hederacea (IPOHE)
# Zea mays (ZEAMX) [7] = assay: Post-emergence Test, Zea mays (ZEAMX); parameters: key to percentage damage caused to the plant, ZEAMX (five-point scale): 5=81-100%, 4=61-80%, 3=41-60%, 2=21-40%, 1=0-20% damage
# Procedure, shortened: as §1
# Setaria faberi (SETFA) [8] = assay: Post-emergence Test, Setaria faberi (SETFA); parameters: key to percentage damage caused to the plant, SETFA (five-point scale): 5=81-100%, 4=61-80%, 3=41-60%, 2=21-40%, 1=0-20% damage
# Procedure, shortened: as §1
# [9] = test system: Amaranthus retoflexus (AMARE); assay: Pre-emergence Test, Amaranthus retoflexus (AMARE)
# [10] = test system: Amaranthus retoflexus (AMARE); assay: Post-emergence Test, Amaranthus retoflexus (AMARE); parameters: key to percentage damage caused to the plant, AMARE (five-point scale): 5=81-100%, 4=61-80%, 3=41-60%, 2=21-40%, 1=0-20% damage
# Procedure, shortened: as §1
# Setaria faberi (SETFA) [11] = assay: Pre-emergence Test, Setaria faberi (SETFA)
# [12] = test system: Ipomoea hederacea (IPOHE); assay: Post-emergence Test, Ipomoea hederacea (IPOHE); parameters: key to percentage damage caused to the plant, IPOHE (five-point scale): 5=81-100%, 4=61-80%, 3=41-60%, 2=21-40%, 1=0-20% damage
# Procedure, shortened: as §1
Structure (SMILES),"Pre-emergence Test ZEAMX, percentage damage caused to the plant (five-point scale) (Zea mays (ZEAMX) [1]; 1000 g/ha)","percentage damage caused to the plant, AMAPA (five-point scale) ([2]; 1000 g/ha)","Pre-emergence Test AMAPA, percentage damage caused to the plant (five-point scale) ([3]; 1000 g/ha)","Pre-emergence Test ECHCG, percentage damage caused to the plant (five-point scale) ([4]; 1000 g/ha)","percentage damage caused to the plant, ECHCG (five-point scale) ([5]; 1000 g/ha)","Pre-emergence Test IPOHE, percentage damage caused to the plant (five-point scale) ([6]; 1000 g/ha)","percentage damage caused to the plant, ZEAMX (five-point scale) (Zea mays (ZEAMX) [7]; 1000 g/ha)","percentage damage caused to the plant, SETFA (five-point scale) (Setaria faberi (SETFA) [8]; 1000 g/ha)","Pre-emergence Test AMARE, percentage damage caused to the plant (five-point scale) ([9]; 1000 g/ha)","percentage damage caused to the plant, AMARE (five-point scale) ([10]; 1000 g/ha)","Pre-emergence Test SETFA, percentage damage caused to the plant (five-point scale) (Setaria faberi (SETFA) [11]; 1000 g/ha)","percentage damage caused to the plant, IPOHE (five-point scale) ([12]; 1000 g/ha)","percentage damage caused to the plant, AMAPA (five-point scale) ([2]; 250 g/Ha)","percentage damage caused to the plant, ECHCG (five-point scale) ([5]; 250 g/Ha)","percentage damage caused to the plant, ZEAMX (five-point scale) (Zea mays (ZEAMX) [7]; 250 g/Ha)","percentage damage caused to the plant, AMARE (five-point scale) ([10]; 250 g/Ha)","percentage damage caused to the plant, IPOHE (five-point scale) ([12]; 250 g/Ha)",further results
"CCn1c(Cn2ccc(Cl)n2)cc(=O)c(C(=O)O)c1-c1ccc(S(C)(=O)=O)c(Cl)c1 [Compound 130, 2-(3-chloro-4-methylsulfonyl-phenyl)-6-[(3-chloropyrazol-1-yl)methyl]-1-ethyl-4-oxo-pyridine-3-carboxylic acid]",0,2 (2=21-40%),1 (1=0-20%),0,0,0,0,1 (1=0-20%),1 (1=0-20%),1 (1=0-20%),0,1 (1=0-20%),–,–,–,–,–,–
"CCn1c(Cn2nc(Cl)cc2Cl)cc(=O)c(C(=O)O)c1-c1ccc(Cl)c(Cl)c1 [Compound 134, 2-(3,4-dichlorophenyl)-6-[(3,5-dichloropyrazol-1-yl)methyl]-1-ethyl-4-oxo-pyridine-3-carboxylic acid]",4 (4=61-80%),4 (4=61-80%),4 (4=61-80%),5 (5=81-100%),4 (4=61-80%),4 (4=61-80%),3 (3=41-60%),4 (4=61-80%),2 (2=21-40%),4 (4=61-80%),5 (5=81-100%),3 (3=41-60%),1 (1=0-20%),3 (3=41-60%),2 (2=21-40%),2 (2=21-40%),4 (4=61-80%),"Pre-emergence Test ZEAMX, percentage damage caused to the plant (five-point scale) (Zea mays (ZEAMX) [1]; 250 g/Ha (*)): 0; Pre-emergence Test AMAPA, percentage damage caused to the plant (five-point scale) ([3]; 250 g/Ha (*)): 2 (2=21-40%); Pre-emergence Test ECHCG, percentage damage caused to the plant (five-point scale) ([4]; 250 g/Ha (*)): 4 (4=61-80%); Pre-emergence Test IPOHE, percentage damage caused to the plant (five-point scale) ([6]; 250 g/Ha (*)): 1 (1=0-20%); percentage damage caused to the plant, SETFA (five-point scale) (Setaria faberi (SETFA) [8]; 250 g/Ha): 4 (4=61-80%); Pre-emergence Test AMARE, percentage damage caused to the plant (five-point scale) ([9]; 250 g/Ha (*)): 1 (1=0-20%); Pre-emergence Test SETFA, percentage damage caused to the plant (five-point scale) (Setaria faberi (SETFA) [11]; 250 g/Ha (*)): 5 (5=81-100%)"
"CCn1c(Cn2nc(C(F)(F)F)cc2C(F)(F)F)cc(=O)c(C(=O)O)c1-c1ccc(Cl)c(Cl)c1 [Compound 135, 6-[[3,5-bis(trifluoromethyl)pyrazol-1-yl]methyl]-2-(3,4-dichlorophenyl)-1-ethyl-4-oxo-pyridine-3-carboxylic acid]",1 (1=0-20%),1 (1=0-20%),0,1 (1=0-20%),–,2 (2=21-40%),2 (2=21-40%),4 (4=61-80%),1 (1=0-20%),2 (2=21-40%),0,3 (3=41-60%),1 (1=0-20%),1 (1=0-20%),1 (1=0-20%),1 (1=0-20%),2 (2=21-40%),–
